Data published in patent US12528790B2, “Amide derivative having antiviral activity” (Shionogi & Co., Ltd., priority 2020, dated 2026).
Read-outs that look alike come from different tables or passages of the source.

Test system: RSV A2 strain
Experiment: In vitro CPE (CytoPathic Effect) inhibition effect evaluation test, RSV type A
Type: cell-based
Conditions: inhibitory effect against RSV type A (RSV A2 strain), HEp-2 cells, CPE inhibition, read-out: EC50
Description: The test sample is diluted in advance to an appropriate concentration with DMSO, and 3-fold series of serial dilutions were prepared on a 384-well plate (0.32 μL/well). HEp-2 cells (CCL-23; ATCC) adjusted at appropriate number (2.4×10^5 cells/mL) in 2% FBS E-MEM (prepared by adding kanamycin and FBS to Eagle's Minimum Essential Medium; Invitrogen) were added at 12.5 μL/well to the 384-well plate previously aliquoted with the test samples. The RSV A2 strain was diluted to an appropriate concentration in a culture medium and added to the 384-well plate containing the test sample at 12.5 μL/well. The culture medium was added additionally to the 384-well plate, and the test was started with 50 μL/well. Control wells were prepared with only virus-free culture medium. The plate was incubated in a 5% CO2 incubator at 37° C. for 4 days, and the plate was then placed at room temperature for 30 minutes. CellTiter-Glo (registered trademark) 2.0 assay (Promega) was added at 15 μL/well, mixed for 30 seconds, and the plate was placed for approximately 1 hour. The luminescent signal was then measured by EnVision (PerkinElmer). The inhibitory effect of the test agents on RSV-induced CPE was calculated as 0% and 100% inhibition rate for each sample concentration based on the level of remaining viable cells by CellTiter-Glo (registered trademark) 2.0, with the EC50 value for each compound calculated by nonlinear regression as the concentration that inhibits RSV-induced CPE by 50%. In the case of evaluation against RSV type B, RSV B (Wash/18537 strain) was infected in the same manner as the type A, cultured for 5 days, and quantitated in the same manner as for the A2 strain.

[1] = human respiratory syncytial virus

Structure (SMILES) | EC50 [1] [µM] | EC50 [µM]
N#Cc1cccc(-n2cc(-c3ccc(C(=O)NC4(C(=O)O)C5CC6CC(C5)CC4C6)c(C(F)(F)F)n3)c3ccc(OC4CCN(c5ncccn5)CC4)cc32)c1 (centres unmarked) [Compound I-336] |  | < 0.01
N#Cc1ccc(-n2cc(-c3ccc(C(=O)NC4(C(=O)O)C5CC6CC(C5)CC4C6)c(C(F)(F)F)n3)c3ccc(OC4CCN(c5ncccn5)CC4)cc32)cc1 (centres unmarked) [Compound I-337] |  | < 0.01
O=C(NC1(C(=O)O)C2CC3CC(C2)CC1C3)c1cnc(N2CC3(CCOCC3)c3cc(CN4CCN(c5ncccn5)CC4)ccc32)nc1C(F)(F)F (centres unmarked) [Compound I-360] |  | < 0.01
COc1cccc(-n2cc(-c3ccc(C(=O)NC4(C(=O)O)C5CC6CC(C5)CC4C6)c(C(F)(F)F)n3)c3ccc(OC4CCN(c5ncccn5)CC4)cc32)n1 (centres unmarked) [Compound I-296] |  | < 0.01
Cc1nsc(COc2ccc3c(c2)CCN3c2ncc(C(=O)NC3(C(=O)O)CCCCC3)c(C(F)(F)F)n2)n1 [Compound I-43] | 0.01 to 0.1 | 
O=C(NC1(C(=O)O)C2CC3CC(C2)CC1C3)c1cnc(N2CC3(CCN(C4COC4)C3)c3cc(OC4CCN(c5ncccn5)CC4)ccc32)nc1C(F)(F)F (racemic) [Compound I-333] |  | < 0.01
O=C(NC1(C(=O)O)C2CC3CC(C2)CC1C3)c1ccc(-c2cn(CC3COC3)c3cc(OC4CCN(c5ncccn5)CC4)ccc23)nc1C(F)(F)F (centres unmarked) [Compound I-265] | < 0.01 | 
O=C(NC1(C(=O)O)CCCCC1)c1cnc(N2CCc3cc(OC4CCN(CC(F)(F)F)CC4)ccc32)nc1C(F)(F)F [Compound I-34] | < 0.01 | 
Cc1ccc2c(c1)C1(CCN(C(=O)OCc3ccccc3)CC1)CN2c1ncc(C(=O)NC2(C(=O)O)C3CC4CC(C3)CC2C4)c(C(F)(F)F)n1 (centres unmarked) [Compound I-132] | 0.01 to 0.1 | 
O=C(NC1(C(=O)O)C2CC3CC(C2)CC1C3)c1cnc(N2CC3(CCOCC3)c3c2cc(F)c(F)c3F)nc1C(F)(F)F (centres unmarked) [Compound I-287] | < 0.01 | 
O=C(NC1(C(=O)O)C2CC3CC(C2)CC1C3)c1cnc(-c2cn(C3CCOCC3)c3cc(OCCC4CCOCC4)ccc23)nc1C(F)(F)F (centres unmarked) [Compound I-131] | < 0.01 | 
CNC(=O)C1CC1c1ccc2c(c1)CCN2c1ncc(C(=O)NC2(C(=O)O)C3CC4CC(C3)CC2C4)c(C(F)(F)F)n1 (racemic) [Compound I-216] | 0.01 to 0.1 | 
COc1ccnc(N2CCC(Oc3ccc4c(c3)CCN4c3ncc(C(=O)NC4(C(=O)O)CCCCC4)c(C(F)(F)F)n3)CC2)c1 [Compound I-79] | 0.01 to 0.1 | 
O=C(NC1(C(=O)O)C2CC3CC(C2)CC1C3)c1cnc(N2CC3(CCOCC3)c3cc(Br)ccc32)nc1C(F)(F)F (centres unmarked) [Compound I-347] |  | < 0.01
O=C(NC1(C(=O)O)C2CC3CC(C2)CC1C3)c1cnc(-c2cn(C3CCC(F)(F)CC3)c3cc(CN4CCC(N5CC(F)(F)C5)CC4)ccc23)nc1C(F)(F)F (centres unmarked) [Compound I-417] | < 0.01 | 
CC(F)(F)c1nc(N2CC3(CCCCC3)c3cc(OC4CCN(CC(F)(F)F)CC4)ccc32)nc(C(C)(F)F)c1C(=O)NC1(C(=O)O)C2CC3CC(C2)CC1C3 (centres unmarked) [Compound I-441] | 0.01 to 0.1 | 
O=C(NC1(C(=O)O)C2CC3CC(C2)CC1C3)c1cnc(N2CC3(CCOCC3)c3cc(OCC(O)C(F)(F)F)ccc32)nc1C(F)(F)F (racemic) [Compound I-458] | < 0.01 | 
O=C(NC1(C(=O)O)C2CC3CC(C2)CC1C3)c1cnc(-c2cn(C3CCC(F)(F)CC3)c3cc(OC4CCN(C(=O)C5CC5)CC4)ccc23)nc1C(F)(F)F (centres unmarked) [Compound I-258] | < 0.01 | 
O=C(NC1(C(=O)O)C2CC3CC(C2)CC1C3)c1ccc(-c2cn(-c3ncccc3C(F)(F)F)c3cc(OC4CCN(c5ncccn5)CC4)ccc23)nc1C(F)(F)F (centres unmarked) [Compound I-316] |  | < 0.01
O=C(NC1(C(=O)O)C2CC3CC(C2)CC1C3)c1cnc(N2CC3(CCOCC3)c3cc(/C=C/CC4CCOCC4)ccc32)nc1C(F)(F)F (centres unmarked) [Compound I-110] |  | < 0.01
O=C(NC1(C(=O)O)C2CC3CC(C2)CC1C3)c1cnc(-c2cn(C3CCC(F)(F)CC3)c3cc(OC4CCC5(CC4)CN(c4ncccn4)C5)ccc23)nc1C(F)(F)F (centres unmarked) [Compound I-369] | < 0.01 | 
O=C(NC1(C(=O)O)C2CC3CC(C2)CC1C3)c1cnc(-c2cn(C3CCC(F)(F)C3)c3cc(OC4CCN(c5ncc(F)cn5)CC4)ccc23)nc1C(F)(F)F (racemic) [Compound I-470] | < 0.01 | 
COc1ccc(COc2ccc3c(c2)CCN3c2ncc(C(=O)NC3(C(=O)O)CCOCC3)c(C(F)(F)F)n2)cc1 [Compound I-15] | 0.01 to 0.1 | 
N#C[C@H]1CC[C@H](n2cc(-c3ccc(C(=O)NC4(C(=O)O)C5CC6CC(C5)CC4C6)c(C(F)(F)F)n3)c3ccc(OC4CCN(c5ncccn5)CC4)cc32)CC1 (some centres unmarked) [Compound I-185] | < 0.01 | 
CC1CC(Oc2ccc3c(-c4ncc(C(=O)NC5(C(=O)O)C6CC7CC(C6)CC5C7)c(C(F)(F)F)n4)cn(C4CCC(F)(F)CC4)c3c2)CCN1c1ncc(F)cn1 (single isomer, unassigned) [Compound I-385] | < 0.01 | 
O=C(NC1(C(=O)O)C2CC3CC(C2)CC1C3)c1ccc(-c2cn(-c3ccccc3F)c3cc(OC4CCN(c5ncccn5)CC4)ccc23)nc1C(F)(F)F (centres unmarked) [Compound I-313] |  | < 0.01

More lines, now with the values ahead:

EC50 [1] [µM] | EC50 [µM] | Structure (SMILES)
< 0.01 |  | O=C(NC1(C(=O)O)C2CC3CC(C2)CC1C3)c1ccc(-c2cn(C3CCOCC3)c3cc(OC4CCN(c5ncccn5)CC4)c(F)cc23)nc1C(F)(F)F (centres unmarked) [Compound I-222]
< 0.01 |  | O=C(NC1(C(=O)O)C2CC3CC(C2)CC1C3)c1cnc(-c2cn(C3CCC(F)(F)CC3)c3cc(OC4CCN(CC(F)(F)C(F)F)CC4)ccc23)nc1C(F)(F)F (centres unmarked) [Compound I-409]
< 0.01 |  | O=C(NC1(C(=O)O)C2CC3CC(C2)CC1C3)c1ccc(-c2cn(-c3ccncn3)c3cc(OC4CCN(c5ncccn5)CC4)ccc23)nc1C(F)(F)F (centres unmarked) [Compound I-197]
< 0.01 |  | O=C(NC1(C(=O)O)C2CC3CC(C2)CC1C3)c1cnc(-c2cn(Cc3ccccc3)c3cc(OC4CCN(c5ncc(F)cn5)CC4)ccc23)nc1C(F)(F)F (centres unmarked) [Compound I-446]
< 0.01 |  | O=C(NC1(C(=O)O)CCCCC1)c1cnc(N2CC3(CCOCC3)c3nc(OCCC4CCOCC4)ccc32)nc1C(F)(F)F [Compound I-106]
< 0.01 |  | Cc1csc(COc2ccc3c(c2)CCN3c2ncc(C(=O)NC3(C(=O)O)CCCCC3)c(C(F)(F)F)n2)n1 [Compound I-37]
< 0.01 |  | O=C(NC1(C(=O)O)C2CC3CC(C2)CC1C3)c1ccc(-c2cn(CC3CC3(F)F)c3cc(OC4CCN(c5ncccn5)CC4)ccc23)nc1C(F)(F)F (racemic) [Compound I-266]
< 0.01 |  | COc1cccc(COc2ccc3c(ccn3-c3ncc(C(=O)NC4(C(=O)O)CC5CCC4C5)c(C(F)(F)F)n3)c2)c1 (single isomer, unassigned) [Compound I-18]
< 0.01 |  | COc1ccc2c(n1)C1(CCOCC1)CN2c1ccc(C(=O)NC2(C(=O)O)C3CC4CC(C3)CC2C4)c(C(F)(F)F)n1 (centres unmarked) [Compound I-120]
< 0.01 |  | O=C(NC1(C(=O)O)C2CC3CC(C2)CC1C3)c1ccc(N2CCc3cc(OCCC4CCOCC4)ccc32)cc1C(F)(F)F (centres unmarked) [Compound I-123]
< 0.01 |  | CN(C)C(=O)C1(NC(=O)c2cnc(N3CC4(CCOCC4)c4cc(OC5CCN(c6ncccn6)CC5)ccc43)nc2C(F)(F)F)C2CC3CC(C2)CC1C3 (centres unmarked) [Compound I-174]
< 0.01 |  | O=C(NC1(C(=O)O)C2CC3CC(C2)CC1C3)c1cnc(-c2cn(C3CCC(F)(F)CC3)c3cc(OC4CCN(C5CCOC5)CC4)ccc23)nc1C(F)(F)F (racemic) [Compound I-277]
